From ChEMBL document CHEMBL3507680, “University of Dundee, Gates Library screen for HepG2 cell viability”

Experiment: Human HepG2 cell viability assay in 384 well format
Assay type: toxicity, cell-based
Parameters: dose 125 nL, time 70.5 hour; cytotoxicity at 70.5 h: concentration not given beside the values
Conditions: HepG2 cells, read-out: Inhibition

Structure (SMILES)	cytotoxicity at 70.5 h
CCn1cc(CN2CCCN(C(=O)c3ccc(C#N)cc3)CC2)cn1	-4.62%
Cc1n[nH]c(C2CN(C(=O)c3ccc4c(c3)CCCC4)CCO2)n1 (stereo not given)	21%
O=C(Cn1ncc(N2CCCC2)cc1=O)Nc1ccc2nccnc2c1	-3.43%
O=C1CCc2cc(S(=O)(=O)NCc3cc4n(n3)CCNC4)ccc2N1	-16.4%
Cc1ccc(F)cc1S(=O)(=O)N1C[C@@H](C)[C@@](C)(O)C1	14.7%
COc1ccc(CC(=O)NCC(O)c2sccc2C)cc1OC (stereo not given)	-6.12%
NC(=O)C1CCN(c2ncc(-c3cnccn3)c([C@H]3CCCO3)n2)CC1	-11.5%
c1ccc(CN2CCc3ncnc(-c4cccnc4)c3CC2)nc1	-7.48%
CC(=O)c1cccc(OCCCC(=O)N(C)CC(N)=O)c1	-7.52%
Cc1ncsc1C(=O)NCc1cc2n(n1)CCN(C(=O)N(C)C)C2	-11.4%
Cc1cnc(CNc2ccccc2CN(C)C(=O)c2cccs2)o1	18.4%
Cc1cc(C)c(CNC(=O)N2CCN(c3cnccn3)CC2)c(=O)[nH]1	-4.71%
Cc1ccsc1CN(C)Cc1nc2c(cnn2C)c(=O)[nH]1	-7.29%
COc1ccc2c(ccn2CCC(=O)NCCC(=O)O)c1	4.49%
Cn1cccc1C(O)CNS(=O)(=O)c1ccccc1F (stereo not given)	3.03%
CC(CN1CCCC1=O)NC(=O)Nc1ccccc1Cn1cccn1 (stereo not given)	-5.84%
CCOC(=O)N1CCN(CC(=O)Nc2ccc(F)cc2Cl)CC1	-8.51%
COCCC(=O)NCc1ccc(-c2ncncc2C(=O)N(C)C)cc1	6.32%
c1cncc(COCc2nnc3n2CCN(CC2CC2)C3)c1	0.791%
O=C(O)[C@]12CCCN(Cc3ccccn3)[C@@H]1CCN(c1cnccn1)C2	-3.65%
CCOCCCNC(=O)c1nn(CC)cc1Br	25.1%
Cn1cnnc1C1CCCN(C(=O)c2ccc3c(c2)OCCCO3)C1 (stereo not given)	-2.02%
O=C(O)CCc1ccc(S(=O)(=O)Nc2cnn(CC3CC3)c2)cc1	27.6%

Structure (SMILES)	cytotoxicity at 70.5 h
CN(Cc1ccco1)C(=O)NCc1ccnc(SC(C)(C)C)c1	-8.67%
CS(=O)(=O)N[C@@H]1CN(Cc2ccc3ncccc3c2)C[C@H]1O	-5.91%
OC1(CN(Cc2cccnc2)C2CCCCC2)CNCCOC1 (stereo not given)	-2.72%
CO[C@@H]1CCC[C@@H](NC(=O)c2cccc(F)c2)[C@H]1O	-1.9%
CC(CN1CCCC1=O)NC(=O)c1ccc(C(F)(F)F)[nH]c1=O (stereo not given)	-74.6%
CN(C)c1nc2sc(C(=O)N3CCNC(=O)CC3)cc2s1	-10.2%
CC(C)CCN1CCNC(=O)C1CC(=O)N1CCc2sccc2C1 (stereo not given)	-7.67%
COC(=O)CN(C(=O)c1cc(C(C)C)no1)c1cccc(F)c1	-8.3%
O=C1Nc2ccccc2CN(CC2CC2)C12CCNC2 (stereo not given)	-3.48%
Cn1ccnc1CN1CCc2onc(COCC3CC3)c2C1	-4.62%
CN1CC(c2ccccc2)CC12CCN(C(=O)c1c(Cl)cnn1C)CC2 (stereo not given)	-7.56%
CC(C)(C)CC(=O)NC[C@H]1OC[C@@H](NCc2ccccn2)[C@@H]1O	-10.1%
Cc1cc(NCc2cccnc2)n2nc(C)cc2n1	-8.91%
CCOC(=O)CC(c1ccc(OC)cc1)c1c(O)n[nH]c1C (stereo not given)	-13.7%
COc1cc(CNc2cnn(C)c2)cc2c1OCCO2	-4.12%
Cc1ccc(CCN2CCC(N(C)Cc3noc(C4CC4)n3)C2)cc1 (stereo not given)	3.87%
CCCOc1cc(CNC(=O)Nc2ccccn2)ccn1	45.7%
CS(=O)(=O)c1cn[nH]c1C1CCCN(C(=O)CN2CCOCC2)C1 (stereo not given)	-5.31%
Cc1occc1C(=O)N1C[C@@H]2CCCO[C@@H]2[C@H](NS(C)(=O)=O)C1	-1.97%
CCc1nc(C)c(CN2CCOC(CCCC(C)C)C2)[nH]1 (stereo not given)	27.1%
CCCN1CCC2(C1)c1ccccc1S(=O)(=O)N2C (stereo not given)	-0.72%
Cc1[nH]c2c(F)cccc2c1CC(=O)NCCCc1csc(N)n1	5.37%
COC(=O)c1ccc(N2CCN(C(=O)c3ccn(C)c(=O)c3)CC2)cc1	1.93%

Structure (SMILES)	cytotoxicity at 70.5 h
Nc1cc(C(=O)NC2CCCN(CCCc3ccccc3)C2)ccn1 (stereo not given)	12.3%
Cc1ccccc1N1CCCN(C(=O)c2nn(C)cc2Cl)CC1	27.7%
COCCC(=O)NCc1ccc(-c2ccccc2C(=O)O)nc1	-3.04%
Cc1cccc2c1NC1(CCOCC1)NC2=O	-26.4%
Cc1cccc(-n2ncc3c2CCCC3NCc2cccc(O)c2)c1C (stereo not given)	-3.55%
COc1ccc(C2CCCN2C(=O)NCCNc2ccccn2)cc1 (stereo not given)	-19.3%
Cc1nc(C(F)(F)F)nc(N2CCC(O)(C(=O)O)CC2)c1C	-6.27%
CC(C)NC(=O)N1CCC2(CC(=O)N(c3ccccc3)C2)C1 (stereo not given)	17.9%
COCCCNC(=O)Nc1ccc(-n2cncn2)c(C(F)(F)F)c1	-5.91%
Cc1cnn(CC2CN(CC(=O)Nc3cc(C)on3)CCO2)c1 (stereo not given)	-5.06%
O=C(NCCn1cccn1)c1nnc2ccccc2n1	19.4%
CSCC(=O)N1CCCCC1Cn1cc(C)cn1 (stereo not given)	-1.03%
Cc1cccc(C(=O)N2CCCN(Cc3cscn3)CC2)c1	-4.03%
CCN(CC1CCOC1)C(=O)c1cn2ccc(C)cc2n1 (stereo not given)	-16.3%
CCC(C)(C)c1cc(-c2c(C)nn(CCO)c2C)c(C#N)c(N)n1	12.5%
CCCn1c(C)c(CC(=O)N[C@H](C)C(=O)OC)c2c1CC(C)(C)CC2=O	-0.686%
O=C(c1ccc(C2CCCN2)s1)N1CCN(C(=O)N2CCOCC2)CC1 (stereo not given)	-6.24%
Cc1cc(C)c2c(NCc3nncn3C3CCCCC3)ncnc2n1	-13.6%
c1ccc(-n2cc(CNC3CCc4ncnn4C3)nn2)cc1 (stereo not given)	-7.65%
OCC1(CC2CC2)CCCN(Cc2cnc(C3CCCCC3)nc2)C1 (stereo not given)	-5.05%
NS(=O)(=O)c1cccnc1Nc1cccc(Cl)c1Cl	3.67%
CC(=O)c1c(C)cc(C)c(Cn2ccnc2S(C)(=O)=O)c1C	6.42%
Cc1ccc(CN2CC[C@@H](NC(=O)c3cccnc3)[C@H](O)C2)s1	-10.7%

Structure (SMILES)	cytotoxicity at 70.5 h
CCc1nnc2n1CCN(C(=O)c1cc(C)n(-c3ccccc3)c1C)C2	-4.27%
CC(NC(=O)N1CCCN(Cc2cccs2)CC1)c1cccnc1 (stereo not given)	-16.5%
COCCn1ccc(=O)c(OCC(=O)Nc2ccc(OC)cc2)c1C	-12%
CCC(CNS(C)(=O)=O)Oc1ccccc1F (stereo not given)	-6.95%
CCSCC(C)NCc1ccccc1-n1ccnc1 (stereo not given)	-2.53%
Cc1cc(C)c(Cn2cncn2)cc1CN1CC[C@H](CO)[C@@H](O)C1	6.21%
COc1cc(C)c2c(c1C)C[C@@H](C(C)C(=O)O)CC2 (stereo not given in full)	-3.12%
O=C(c1ncoc1C1CCCO1)N1CCCC2(CCCCC2)C1 (stereo not given)	-2.37%
CC(=O)N1CCCN(C(=O)c2csc(-c3ccc(C)cc3C)n2)CC1	-4.64%
Cc1ccc(OCC(=O)Nc2cnccc2SCCCO)cc1C	9.63%
Cc1cc(F)c(S(=O)(=O)NCCCN2CCC(O)CC2)cc1F	7.32%
CCN1CC(COC(=O)c2cccc(Br)c2)CC1=O (stereo not given)	-7.36%
CC(Cn1cncn1)NCCN1CCc2ccccc21 (stereo not given)	-5.52%
O=C(N[C@H]1CN[C@H]2CCCO[C@H]21)c1cscn1	-4.74%
Cc1nc(CC(=O)N2CCN(C(C)c3ccccc3F)CC2)cs1 (stereo not given)	-5.6%
CCN(C(=O)C1=NN(c2ccccc2)C(=O)CN1)c1ccccc1	-2.62%
Cc1csc(CN(C)C2CCN(c3sccc3C#N)C2=O)n1 (stereo not given)	16%
CN(C)C(=O)c1cccc(NC(=O)c2cnn(C)c2)c1	-4.77%
Clc1ccccc1-c1cc(CNc2ncnc3c2CCNCC3)no1	12.2%
Cc1ccc(C)c(-n2ccc3nc(N4CCCC4)ncc3c2=O)c1	-7.78%
CCN1CCCC1CNC(=O)CCSc1ccc2c(c1)OCCO2 (stereo not given)	2.47%
Cc1cc(CN(Cc2cccnc2)CC2CCCO2)on1 (stereo not given)	-1.62%
Cc1ccc(F)c(S(=O)(=O)Nc2cn(C)cc(Br)c2=O)c1	-1.44%

Structure (SMILES)	cytotoxicity at 70.5 h
Nc1cc2c(nn1)CCN(C(=O)Cc1ccc3c(c1)CCCC3)C2	-2.05%
Cc1nc(NC2CCN(C(=O)C3CC3)CC2)c2cnn(C)c2n1	-11.5%
O=c1cc(Cn2ccnc2)nc2n1CCCN(CC1CCOCC1)C2	-19.5%
Cc1nc(C)n(CC2CCCCN2CCCC#N)n1 (stereo not given)	6.75%
c1cncc(OCc2n[nH]c3c2CN(Cc2cccs2)C3)c1	-6.87%
O=C1CC(N(C(=O)c2ccccc2Br)C2CC2)C(=O)N1 (stereo not given)	2.23%
OC[C@H]1CN(Cc2c(Cl)cncc2Cl)C[C@H]1CN1CCOCC1	-10.9%
Cc1csc(CN2CCC[C@]3(C[C@H](OCC4CC4)CO3)C2)n1	1.27%
CCC(NC(=O)CC(F)(F)F)c1ccccc1OCC(=O)N1CCCC1 (stereo not given)	-7.99%
COCCCn1c(CN2CCSCC2)cnc1S(=O)(=O)C1CCCC1	-2.29%
O=C(Nc1ccnc(OC2CCOC2)c1)c1ccc(F)cc1Cl (stereo not given)	0.257%
Cc1cc(C)n(C2CCN(c3ncnc4sc5c(c34)CCNC5)C2)n1 (stereo not given)	-18.5%
CCC(=O)N1CCC2(CC1)C(c1cccnc1)CC(=O)N2CCOC (stereo not given)	1.53%
CC(C)NC(=O)N1CCN(CC2CC2)c2ncccc2C1	-15.2%
c1ccc(-c2noc3c2CN(CC2CC2)CC3)cc1	-3.25%
Cc1cc(C2CCCN2C(=O)CN(C)Cc2ccccc2)no1 (stereo not given)	-5.16%
Cc1nccn1CC1CCCN1S(=O)(=O)Cc1ccc(F)cc1 (stereo not given)	-0.149%
O=C(NCCNc1cnccn1)N1CCc2ccccc2C1	-13.1%
CCc1ccc(C(C)NC(=O)c2ccc(CS(C)(=O)=O)o2)cc1 (stereo not given)	-4.79%
Cc1nn(CCCNC(=O)C2CCN(S(C)(=O)=O)CC2)cc1Cl	36.7%
CC(C)N1CCCn2c(nc(CNC(=O)c3nccn3C)cc2=O)C1	-17.1%
NCCN1CCC(c2nnc(Cn3ccnc3)n2C2CC2)CC1	-3.91%
O=C(C1CC=CC1)N1CC[C@@H](O)[C@H]1Cc1cccnc1	1.93%
